Data reported in ChEMBL document CHEMBL1201862, “PubChem BioAssay data set” (2004).
The source made the active and inactive calls.

Legend:
[1] = cytotoxicity in HEK-293T cells, dose response, cytotoxicity control for TCR NF-kB inhibitor project, luminescence, T-cell screen hits (AID 489026); format: functional, cell-based;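 further: cells exposed to compound about 14 hours before the viability readout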
Estrogen receptor beta = Estrogen receptor beta (Homo sapiens, UniProt Q92731); test: ERβ–SRC-3 coactivator interaction inhibitors, confirmation, orthogonal assay, biochemical, ELISA, streptavidin-HRP readout (AID 1060)
Sequence of Estrogen receptor beta (Q92731 whole entry): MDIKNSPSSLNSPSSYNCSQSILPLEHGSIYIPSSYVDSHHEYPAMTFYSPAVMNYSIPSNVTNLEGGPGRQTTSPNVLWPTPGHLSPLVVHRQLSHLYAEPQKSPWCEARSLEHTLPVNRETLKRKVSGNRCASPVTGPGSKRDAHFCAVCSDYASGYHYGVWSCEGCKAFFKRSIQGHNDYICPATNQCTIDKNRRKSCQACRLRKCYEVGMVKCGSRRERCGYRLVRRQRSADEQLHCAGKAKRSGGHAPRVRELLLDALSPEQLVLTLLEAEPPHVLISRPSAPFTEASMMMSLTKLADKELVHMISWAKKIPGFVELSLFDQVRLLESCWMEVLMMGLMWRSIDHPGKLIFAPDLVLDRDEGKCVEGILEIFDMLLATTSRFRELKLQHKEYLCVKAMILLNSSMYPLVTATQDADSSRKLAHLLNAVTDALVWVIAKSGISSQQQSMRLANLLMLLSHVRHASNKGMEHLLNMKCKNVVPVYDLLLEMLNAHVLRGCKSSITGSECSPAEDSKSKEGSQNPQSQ

Vero = test: cells; format: functional; settings: Chlorocebus sabaeus
[2] = microbe, parasite or virus in culture; format: functional; settings: Mycobacterium tuberculosis
[3] = Luminescence Cell-Based Dose Response HTS to Identify Activators of Luciferase Translation or Activity in H4 […] Cells. [Related pubchem assays: 1829 (Project Summary), 1814 (Primary HTS)]; format: functional
[4] = Luminescence Cell-Based Dose Response to Identify Activators of Luciferase Translation or Activity in H4-C Neuroglioblastoma Cells. [Related pubchem assays: 1829 (Project Summary), 1814 (Primary HTS)]; format: functional
[5] = Luminescence Cell-Based Dose Confirmation to Identify Activators of 5'UTR Stem-Loop Driven Alpha-Synuclein mRNA Translation in H4 Neuroglioblastoma Cells. [Related pubchem assays: 1829 (Project Summary), 1814 (Primary HTS)]; format: functional
[6] = Luminescence Cell-Based Dose Response to Identify Activators of 5'UTR Stem-Loop Driven Prion Protein mRNA Translation in H4-C Neuroglioblastoma Cells. [Related pubchem assays: 1829 (Project Summary), 1814 (Primary HTS)]; format: functional
[7] = HEp-2 cell cytotoxicity, dose response, cytotoxicity control for RSV inhibitor project, HTS (AID 2410); format: functional; settings: human respiratory syncytial virus
[8] = test system: Streptococcus sp. 'group A'; test: growth inhibition of control SK(-) GAS strain, dose response, counter-screen for streptokinase expression inhibitor project, luminescence, kanamycin, BacTiterGlo, confirmation (AID 1900); format: functional, organism-based
Streptococcus = test: Group A Streptococcus viability loss, dose response, counter-screen for streptokinase expression inhibitor project, luminescence, BacTiterGlo (AID 1915); format: functional, organism-based;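 further: potency for reduction of bacterial viability or growth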
Streptokinase A = biological target: T1, Streptokinase A (Streptococcus pyogenes serotype M1, UniProt P10520); test: S. pyogenes streptokinase expression inhibitors, potency, dose response, plasminogen activation absorbance, OD405 (AID 1914); format: functional, Streptococcus pyogenes M1 GAS;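 further: secreted streptokinase activity via plasminogen activation per viability signal from cell pellet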
T1 sequence (P10520 whole entry): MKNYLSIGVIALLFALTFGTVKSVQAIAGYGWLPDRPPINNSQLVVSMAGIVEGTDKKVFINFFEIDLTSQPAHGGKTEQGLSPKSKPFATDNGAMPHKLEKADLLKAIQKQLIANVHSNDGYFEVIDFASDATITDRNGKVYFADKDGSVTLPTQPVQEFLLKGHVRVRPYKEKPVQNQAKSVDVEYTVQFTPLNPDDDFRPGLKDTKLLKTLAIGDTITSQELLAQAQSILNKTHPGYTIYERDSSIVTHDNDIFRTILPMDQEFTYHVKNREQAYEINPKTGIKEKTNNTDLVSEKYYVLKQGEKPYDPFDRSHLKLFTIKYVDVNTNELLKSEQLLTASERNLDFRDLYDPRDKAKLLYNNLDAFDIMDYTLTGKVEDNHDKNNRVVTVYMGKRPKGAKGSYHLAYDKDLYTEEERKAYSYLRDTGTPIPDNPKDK

Melanocortin receptor 4 = Melanocortin receptor 4 (Homo sapiens, UniProt P32245); test: MC4R antagonist potency on cAMP, dose response, cell-based, TR-FRET, biased antagonists (AID 602298); format: functional;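 further: antagonist potency against agonist-stimulated cAMP production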
Sequence of Melanocortin receptor 4 (P32245 whole entry): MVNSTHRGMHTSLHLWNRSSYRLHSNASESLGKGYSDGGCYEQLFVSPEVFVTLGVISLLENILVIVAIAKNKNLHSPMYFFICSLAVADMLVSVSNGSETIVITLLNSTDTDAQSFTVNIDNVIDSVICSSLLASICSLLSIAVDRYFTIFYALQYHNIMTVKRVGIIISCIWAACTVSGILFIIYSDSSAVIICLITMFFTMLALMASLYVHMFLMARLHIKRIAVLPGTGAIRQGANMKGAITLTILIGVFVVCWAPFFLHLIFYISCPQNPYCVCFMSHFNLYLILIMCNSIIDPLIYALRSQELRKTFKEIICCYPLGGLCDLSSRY

[9] = nonselective inhibitors of cellular cAMP signaling, dose response, counter-screen for MC4R biased antagonist project, cell-based, TR-FRET cAMP detection (AID 602305); format: functional;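 further: U2OS cells stimulated with forskolin near its EC80 as the cAMP inducer; potency is for inhibition of forskolin-stimulated cAMP signaling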
CAAX prenyl protease 2 = biological target: T2, CAAX prenyl protease 2 (Saccharomyces cerevisiae S288c, UniProt Q03530); format: biochemical
T2 sequence (Q03530 whole entry): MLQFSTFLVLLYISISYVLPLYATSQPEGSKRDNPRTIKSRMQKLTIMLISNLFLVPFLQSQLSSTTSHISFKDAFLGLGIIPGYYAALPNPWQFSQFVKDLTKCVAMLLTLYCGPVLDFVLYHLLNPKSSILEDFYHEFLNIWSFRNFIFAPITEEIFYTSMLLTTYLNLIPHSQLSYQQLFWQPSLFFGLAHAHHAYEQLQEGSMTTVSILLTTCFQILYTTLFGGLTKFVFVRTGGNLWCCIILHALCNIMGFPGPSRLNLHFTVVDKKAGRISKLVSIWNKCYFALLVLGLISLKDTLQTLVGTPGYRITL

[10] = biological target: G-protein coupled receptor 55 (Homo sapiens, UniProt Q9Y2T6); test: GPR55 antagonists blocking LPI-driven arrestin recruitment, primary screen, imaging, U2OS, beta-arrestin-GFP, LPI agonist (AID 2013); format: functional;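 further: antagonist potency measured as reduced agonist-driven arrestin aggregation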
Sequence of G-protein coupled receptor 55 (Q9Y2T6 whole entry): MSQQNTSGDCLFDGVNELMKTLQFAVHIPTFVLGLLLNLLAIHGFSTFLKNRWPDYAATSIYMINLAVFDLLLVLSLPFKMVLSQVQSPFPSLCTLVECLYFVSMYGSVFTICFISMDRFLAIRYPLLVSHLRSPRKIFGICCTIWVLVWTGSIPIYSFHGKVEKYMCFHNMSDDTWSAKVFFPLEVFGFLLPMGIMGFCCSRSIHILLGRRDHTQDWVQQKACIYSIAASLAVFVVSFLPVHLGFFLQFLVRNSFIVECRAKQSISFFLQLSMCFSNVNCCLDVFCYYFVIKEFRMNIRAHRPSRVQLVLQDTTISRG

[11] = biological target: T3, Ubiquitin-conjugating enzyme E2 N (Homo sapiens, UniProt P61088); format: functional;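 further: Dose-response confirmation in a TR-FRET assay detecting UBC13-driven polyubiquitin chain formation, inhibition measured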
T3 sequence (P61088 whole entry): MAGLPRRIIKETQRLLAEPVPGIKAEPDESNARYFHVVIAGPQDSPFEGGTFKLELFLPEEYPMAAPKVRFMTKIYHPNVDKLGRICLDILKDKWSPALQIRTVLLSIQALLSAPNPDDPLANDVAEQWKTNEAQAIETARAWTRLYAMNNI

[12] = biological target: T4, Zinc finger protein mex-5 (Caenorhabditis elegans, UniProt Q9XUB2); test: MEX-5/TCR-2 RNA interaction inhibitors, dose response, biochemical, C. elegans, fluorescence polarization (AID 1960)
T4 sequence (Q9XUB2 whole entry): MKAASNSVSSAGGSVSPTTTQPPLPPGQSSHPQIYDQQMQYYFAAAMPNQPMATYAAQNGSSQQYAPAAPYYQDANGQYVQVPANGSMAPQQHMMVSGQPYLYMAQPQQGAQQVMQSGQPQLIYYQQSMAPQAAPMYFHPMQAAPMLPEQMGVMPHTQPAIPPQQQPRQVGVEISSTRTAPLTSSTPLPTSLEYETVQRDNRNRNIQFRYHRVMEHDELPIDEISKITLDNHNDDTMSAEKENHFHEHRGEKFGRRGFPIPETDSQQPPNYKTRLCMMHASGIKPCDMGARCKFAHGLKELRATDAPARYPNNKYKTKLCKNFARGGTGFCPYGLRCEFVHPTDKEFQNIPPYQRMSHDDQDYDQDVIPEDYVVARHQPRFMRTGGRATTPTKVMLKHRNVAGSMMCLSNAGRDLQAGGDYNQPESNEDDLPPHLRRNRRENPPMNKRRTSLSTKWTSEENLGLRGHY

Nonstructural protein 1 = Nonstructural protein 1 (Influenza A virus, UniProt Q194T2); format: functional, Influenza A virus (A/California/07/2009(H1N1))
Sequence of Nonstructural protein 1 (Q194T2 whole entry, the tested form may be a part): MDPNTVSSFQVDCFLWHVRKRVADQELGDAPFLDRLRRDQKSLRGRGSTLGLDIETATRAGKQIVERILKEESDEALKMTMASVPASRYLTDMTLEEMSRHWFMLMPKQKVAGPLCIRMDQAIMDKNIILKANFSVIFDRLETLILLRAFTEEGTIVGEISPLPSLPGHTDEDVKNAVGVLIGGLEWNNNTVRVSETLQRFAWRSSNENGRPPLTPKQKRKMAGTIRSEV

[13] = biological target: T5, RNA-binding protein pos-1 (Caenorhabditis elegans, UniProt G5EF15); test: inhibitors of POS-1/mex-3 RNA binding, dose response, biochemical, fluorescence polarization (AID 1964);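 further: purified POS-1 fused to maltose binding protein made in E. coli; potency of compounds blocking POS-1 binding to fluorescent RNA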
T5 sequence (G5EF15 whole entry): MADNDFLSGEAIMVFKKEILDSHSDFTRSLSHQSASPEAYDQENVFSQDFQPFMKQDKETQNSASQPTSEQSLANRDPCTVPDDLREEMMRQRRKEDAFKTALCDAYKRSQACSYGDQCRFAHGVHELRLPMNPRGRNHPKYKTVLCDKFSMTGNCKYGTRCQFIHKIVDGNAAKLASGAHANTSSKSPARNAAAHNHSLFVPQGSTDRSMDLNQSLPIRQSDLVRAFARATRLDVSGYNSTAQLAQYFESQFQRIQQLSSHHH

[14] = Luminescence-based counterscreen assay for KLF5 inhibitors: dose response cell-based high throughput screening assay to identify cytotoxic compounds using the IEC-6 intestinal epithelial cell line. [Related pubchem assays: 1700 (Primary screen.), 1834 (Confirmation screen.), 1858 (Summary AID.), 1905 (Counterscreen.)]; format: functional
Fatty acid synthase [15] = biological target: T6, Fatty acid synthase (Homo sapiens, UniProt P49327); test: FAS thioesterase domain inhibitors, dose response, biochemical, endpoint fluorescence intensity, uHTS hits (AID 624327); format: functional;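 further: fluorescence from hydrolysis of an O-methyl fluorescein acyl ester substrate by the enzyme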
T6 sequence (P49327 whole entry, the tested form may be a part): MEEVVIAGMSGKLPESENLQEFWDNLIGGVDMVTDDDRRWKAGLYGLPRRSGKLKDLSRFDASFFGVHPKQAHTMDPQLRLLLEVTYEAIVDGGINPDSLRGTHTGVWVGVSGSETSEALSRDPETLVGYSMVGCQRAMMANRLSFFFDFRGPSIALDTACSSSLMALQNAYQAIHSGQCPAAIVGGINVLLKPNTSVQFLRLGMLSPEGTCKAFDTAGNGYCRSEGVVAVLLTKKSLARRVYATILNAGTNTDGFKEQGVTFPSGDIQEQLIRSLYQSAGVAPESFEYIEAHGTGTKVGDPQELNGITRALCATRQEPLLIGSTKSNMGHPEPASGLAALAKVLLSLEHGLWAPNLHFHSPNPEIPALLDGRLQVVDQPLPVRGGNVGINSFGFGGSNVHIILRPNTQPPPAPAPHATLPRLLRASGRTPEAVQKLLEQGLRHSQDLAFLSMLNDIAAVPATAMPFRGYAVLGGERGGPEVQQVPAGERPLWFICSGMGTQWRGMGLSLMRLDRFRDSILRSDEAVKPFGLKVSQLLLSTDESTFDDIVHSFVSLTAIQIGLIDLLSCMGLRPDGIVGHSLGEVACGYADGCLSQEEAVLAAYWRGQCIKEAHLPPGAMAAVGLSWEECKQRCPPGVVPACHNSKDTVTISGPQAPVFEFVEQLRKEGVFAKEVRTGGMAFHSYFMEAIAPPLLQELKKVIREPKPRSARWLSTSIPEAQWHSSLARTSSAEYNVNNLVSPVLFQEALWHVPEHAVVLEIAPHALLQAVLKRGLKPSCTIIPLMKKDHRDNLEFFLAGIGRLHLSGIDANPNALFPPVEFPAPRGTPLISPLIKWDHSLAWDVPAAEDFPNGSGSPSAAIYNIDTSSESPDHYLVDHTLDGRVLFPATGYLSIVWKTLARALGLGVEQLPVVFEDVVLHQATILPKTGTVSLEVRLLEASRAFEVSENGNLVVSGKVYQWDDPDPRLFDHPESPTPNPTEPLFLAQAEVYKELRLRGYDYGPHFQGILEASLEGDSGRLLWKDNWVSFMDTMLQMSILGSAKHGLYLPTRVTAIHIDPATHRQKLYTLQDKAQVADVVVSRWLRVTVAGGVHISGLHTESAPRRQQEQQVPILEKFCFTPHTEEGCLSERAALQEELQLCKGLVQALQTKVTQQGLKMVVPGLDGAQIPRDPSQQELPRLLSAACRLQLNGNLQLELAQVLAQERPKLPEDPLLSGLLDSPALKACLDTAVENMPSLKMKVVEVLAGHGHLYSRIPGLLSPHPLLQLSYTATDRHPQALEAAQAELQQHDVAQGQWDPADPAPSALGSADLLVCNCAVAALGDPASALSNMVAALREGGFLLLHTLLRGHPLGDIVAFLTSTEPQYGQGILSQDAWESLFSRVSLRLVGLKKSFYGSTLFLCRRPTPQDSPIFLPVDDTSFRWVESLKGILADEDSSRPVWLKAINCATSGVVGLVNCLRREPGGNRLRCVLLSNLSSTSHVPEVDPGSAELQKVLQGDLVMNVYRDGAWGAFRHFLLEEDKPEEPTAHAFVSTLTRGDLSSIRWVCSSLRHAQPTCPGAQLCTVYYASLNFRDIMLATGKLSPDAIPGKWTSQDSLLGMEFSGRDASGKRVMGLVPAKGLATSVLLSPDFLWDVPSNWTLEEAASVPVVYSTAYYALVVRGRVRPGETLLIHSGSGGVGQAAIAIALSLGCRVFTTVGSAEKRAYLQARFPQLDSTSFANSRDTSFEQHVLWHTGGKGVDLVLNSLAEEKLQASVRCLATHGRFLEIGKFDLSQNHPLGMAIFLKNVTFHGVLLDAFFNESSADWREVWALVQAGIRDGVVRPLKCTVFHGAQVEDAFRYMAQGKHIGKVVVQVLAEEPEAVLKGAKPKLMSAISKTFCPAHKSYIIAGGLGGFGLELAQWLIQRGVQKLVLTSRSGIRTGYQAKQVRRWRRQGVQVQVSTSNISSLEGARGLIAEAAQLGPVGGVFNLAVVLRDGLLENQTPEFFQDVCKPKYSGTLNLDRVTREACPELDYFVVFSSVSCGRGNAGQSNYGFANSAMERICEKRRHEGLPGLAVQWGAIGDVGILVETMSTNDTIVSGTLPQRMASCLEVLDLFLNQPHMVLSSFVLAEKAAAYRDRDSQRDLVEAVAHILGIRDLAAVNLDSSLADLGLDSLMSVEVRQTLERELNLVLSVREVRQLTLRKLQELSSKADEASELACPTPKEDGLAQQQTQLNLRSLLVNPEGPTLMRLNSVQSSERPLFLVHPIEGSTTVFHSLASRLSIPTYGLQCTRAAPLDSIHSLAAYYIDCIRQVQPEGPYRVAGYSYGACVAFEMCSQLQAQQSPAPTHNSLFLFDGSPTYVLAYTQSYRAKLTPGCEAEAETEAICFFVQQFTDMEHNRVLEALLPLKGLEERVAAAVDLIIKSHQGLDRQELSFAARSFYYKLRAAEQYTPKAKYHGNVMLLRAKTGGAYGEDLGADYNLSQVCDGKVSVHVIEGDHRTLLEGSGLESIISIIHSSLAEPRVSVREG

Fatty acid synthase [16] = biological target: T6, Fatty acid synthase; test: FAS thioesterase domain inhibitors, dose response, biochemical, kinetic fluorescence intensity (AID 624326); format: functional;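 further: rate of fluorescence rise from hydrolysis of a fluorogenic O-methyl fluorescein ester substrate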
[17] = cytotoxicity toward NIH3T3 fibroblasts, dose response, counter-screen, cell-based, ATP luminescence, mouse fibroblasts (AID 2010); format: functional;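 further: cells exposed to compound for about 90 hours before reading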
[18] = inhibitors of intracellular T. cruzi replication, confirmation, NIH3T3 host cells, beta-gal luminescence (AID 2044); format: functional, cell-based;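 further: intracellular parasites grown in NIH/3T3 mouse fibroblasts as host cells; luminescent beta-galactosidase reporter signal from transgenic T. cruzi replicating inside host cells; inhibitors lower the luminescence signal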
[19] = biological target: Glyceraldehyde-3-phosphate dehydrogenase (Homo sapiens, UniProt P04406)
Sequence of Glyceraldehyde-3-phosphate dehydrogenase (P04406 whole entry): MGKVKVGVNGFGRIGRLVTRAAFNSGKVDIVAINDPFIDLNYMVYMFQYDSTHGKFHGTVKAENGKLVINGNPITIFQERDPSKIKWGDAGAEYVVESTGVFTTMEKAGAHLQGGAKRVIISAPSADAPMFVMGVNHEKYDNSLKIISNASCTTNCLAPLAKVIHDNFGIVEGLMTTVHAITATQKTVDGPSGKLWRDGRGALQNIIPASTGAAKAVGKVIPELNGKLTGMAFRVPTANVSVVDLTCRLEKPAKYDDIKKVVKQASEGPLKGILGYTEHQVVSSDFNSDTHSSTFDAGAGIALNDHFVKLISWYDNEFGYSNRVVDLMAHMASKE

[20] = biological target: T7, Alkaline phosphatase, tissue-nonspecific isozyme (Homo sapiens, UniProt P05186); test: human TNAP enzyme inhibitors, SAR follow-up, biochemical, luminescent, dose response (AID 1056)
T7 sequence (P05186 whole entry): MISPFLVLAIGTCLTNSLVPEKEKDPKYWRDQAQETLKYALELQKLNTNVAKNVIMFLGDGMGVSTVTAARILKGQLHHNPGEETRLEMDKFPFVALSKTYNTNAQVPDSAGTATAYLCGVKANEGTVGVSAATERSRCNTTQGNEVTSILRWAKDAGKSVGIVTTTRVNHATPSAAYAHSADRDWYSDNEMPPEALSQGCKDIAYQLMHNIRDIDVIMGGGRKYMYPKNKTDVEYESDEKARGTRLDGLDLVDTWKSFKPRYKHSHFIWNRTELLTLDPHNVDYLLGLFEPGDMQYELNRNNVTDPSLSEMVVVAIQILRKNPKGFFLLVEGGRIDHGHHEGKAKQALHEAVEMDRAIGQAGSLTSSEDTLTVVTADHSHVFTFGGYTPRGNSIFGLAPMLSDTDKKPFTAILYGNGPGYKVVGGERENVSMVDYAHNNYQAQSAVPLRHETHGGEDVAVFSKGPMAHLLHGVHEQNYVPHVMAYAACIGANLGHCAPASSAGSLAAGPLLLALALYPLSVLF

cells [21] = format: functional, cell-based
cells [22] = format: functional, cell-based; remark: listed apart in the source
H4 = test: Luminescence Cell-Based Dose Response HTS to Identify Activators of 5'UTR Stem-Loop Driven Prion Protein mRNA Translation in H4 Neuroglioblastoma Cells. [Related pubchem assays: 1829 (Project Summary), 1814 (Primary HTS)]; format: functional; settings: Homo sapiens
[23] = Luminescence Cell-Based Dose Confirmation HTS to Identify Activators of 5'UTR Stem-Loop Driven Alpha-Synuclein mRNA Translation in H4 Neuroglioblastoma Cells. [Related pubchem assays: 1829 (Project Summary), 1814 (Primary HTS)]; format: functional

## CCn1ncc(C2=NOC(C(=O)NCc3ccccc3)C2)c1C (configuration not stated)
[1]
  IC50: > 80 µM (inactive)

## CCCc1cc(O)nc(SCC(=O)Nc2ccc(C(=O)OC)cc2)n1
Estrogen receptor beta
  IC50: > 50 µM (not active)

## CCC1(c2ccccc2)ON(c2c(Br)cccc2Br)C1=O (configuration not stated)
Vero
  CC50: > 25 µM (active)
[2]
  CC50: 21.4 µM (active)

## O=C(Nc1ncc(Cc2ccccc2)s1)C1COc2ccccc2O1 (configuration not stated)
[3]
  EC50: < 0.1 µM (active)
[4]
  EC50: 11.4 µM (active)
[5]
  EC50: 0.465 µM (active)
[6]
  EC50: 0.179 µM (active)

## Cn1cnnc1SCc1ccc(C(=O)N=Nc2c(O)n(Cc3ccc(Cl)cc3)c3ccccc23)cc1
[7]
  CC50: 16.5 µM (active)
[8]
  EC50: 3.12 µM (active)
Streptococcus
  EC50: > 150 µM (not active)
Streptokinase A
  EC50: 18 µM (inconclusive)
[2]
  CC50: 21.2 µM (active)

## O=C(Nc1ccccc1-c1nc2ccccc2[nH]1)c1ccc(N2C(=O)CCC2=O)cc1
Melanocortin receptor 4
  IC50: > 21.5 µM (inactive)
[9]
  IC50: > 64.6 µM (inactive)
CAAX prenyl protease 2
  AC50: 75.6 µM (active)

## O=C(NC(=S)Nc1ccccc1N1CCOCC1)c1ccc(Br)cc1
[10]
  IC50: 1.08 µM (active)

## CCOC(=O)c1c(C(C)(C)C)oc2ccc(O)cc12
[10]
  IC50: 4.47 µM (active)
[11]
  IC50: > 20 µM (inactive)

## c1ccc(-c2nnc(-c3ccccn3)nn2)nc1
[12]
  EC50: 49.8 µM (inconclusive)
Nonstructural protein 1
  IC50: 12.6 µM (active)
[2]
  CC50: 34.2 µM (active)
[13]
  EC50: > 300 µM (not active)

## CN(C)c1cc(O)c(C(S)=Nc2ccccc2)c(N(C)C)c1
CAAX prenyl protease 2
  AC50: 52.2 µM (active)

## CCOC(=O)c1sc(NC(=O)c2ccc3ncsc3c2)nc1C
[14]
  IC50: > 39.8 µM (not active)

## N#CC1=C2N=C(N)c3ccccc3N2C2=C(C(=O)CCC2)C1c1cccc(Cl)c1 (configuration not stated)
[10]
  IC50: 8.48 µM (active)

## CC(C)(CNC(=O)c1ccc([N+](=O)[O-])c(Cl)c1)CNC(=O)c1ccc([N+](=O)[O-])c(Cl)c1
Fatty acid synthase [15]
  IC50: 5.44 µM (active)
Melanocortin receptor 4
  IC50: > 64.6 µM (inactive)
Fatty acid synthase [16]
  IC50: 6.06 µM (active)
[9]
  IC50: > 64.6 µM (inactive)
[10]
  IC50: 3.11 µM (active)

## COc1ccc(C2c3[nH]c4ccccc4c3CCN2Cc2cccn2-c2ncccn2)cc1C (configuration not stated)
[17]
  EC50: > 60 µM (inconclusive)
[18]
  EC50: 1.28 µM (active)
[2]
  CC50: > 40 µM (active)

## Cc1c(C(=O)O)nnn1-c1ccc(Cl)cc1
[19]
  IC50: > 100 µM (not active)
[20]
  IC50: > 100 µM (inactive)

## COc1cccc(S(=O)(=O)Nc2ccncn2)c1
[19]
  IC50: > 100 µM (not active)
[20]
  IC50: > 100 µM (inactive)

## Cc1ccc(C(=O)N/N=C/c2cc(Br)ccc2O)cn1
[8]
  EC50: 3.17 µM (active)
Nonstructural protein 1
  IC50: 12.3 µM (active)
Cells [21]
  EC50: > 350 µM (not active)
Streptococcus
  EC50: 5.99 µM (active)
[14]
  IC50: 5.56 µM (active)
Cells [22]
  EC50: 16.1 µM (active)

## CN1CCN(Cc2c(C(=O)N/N=C/c3cccc(Br)c3)nnn2-c2nonc2N)CC1
Vero
  CC50: 10.1 µM (active)
CAAX prenyl protease 2
  AC50: 2.08 µM (active)

## C/C(=N\OC(=O)c1ccc(F)cc1)c1sc(-c2ccc(Cl)cc2)nc1C
[3]
  EC50: 0.122 µM (active)
H4
  EC50: < 0.1 µM (active)
[4]
  EC50: 0.37 µM (active)
[5]
  EC50: 0.236 µM (active)
[6]
  EC50: 0.301 µM (active)
[23]
  EC50: < 0.1 µM (active)
